Assay results: patent publication EP0515141A1, “Novel process for the preparation of 8A-aza-8A-homoerythromycin cyclic lactams” (MERCK & CO. INC., priority 1991, dated 1992)
Values after ≈ are worked out from the molar mass of the structure shown.

How the values were obtained:
Assay in all cases: liquid turbidimetric microtiter MIC assay
Type in all cases: cell-based
[1] = test system: Klebsiella pneumoniae MB 4005; settings: MB4005, brain heart infusion broth
Description: (§1) The antibacterial activities of compound (III) against a panel of aerobic Gram positive and negative bacteria is shown in the following Table. The assay employs a liquid turbidimetric microtiter method for the determination of the minimum inhibitory concentration (MIC) in brain heart infusion broth. […] The MIC is generally not an absolute value but rather a concentration ranged that falls within a two-fold dilution limit. Generally twelve two-fold dilutions of the test compound are employed with the initial concentration set at 128 mcg/ml.

[2] = test system: Enterococcus faecium MB 5416; settings: MB5416, brain heart infusion broth
Description: as §1

[3] = test system: Staphylococcus haemolyticus MB 5412; settings: MB5412, brain heart infusion broth
Description: as §1

Escherichia coli MB 4926 = settings: MB4926, brain heart infusion broth
Description: as §1

[4] = test system: Streptococcus pyogenes MB 5406; settings: MB5406, brain heart infusion broth
Description: as §1

[5] = test system: Staphylococcus epidermidis MB 5414; settings: MB5414, brain heart infusion broth
Description: as §1

[6] = test system: Yersinia enterocoltica CL 1598; settings: CL1598, brain heart infusion broth
Description: as §1

[7] = test system: Staphylococcus aureus MB 2865; settings: MB2865, brain heart infusion broth
Description: as §1

[8] = test system: Streptococcus agalactiae CL 1343; settings: CL1343, brain heart infusion broth
Description: as §1

[9] = test system: Streptococcus pneumoniae CL 2883; settings: CL2883, brain heart infusion broth
Description: as §1

[10] = test system: Pseudomonas stutzeri MB 1231; settings: Stutzerimonas stutzeri, MB1231, brain heart infusion broth
Description: as §1

[11] = test system: Enterococcus faecalis MB 5407; settings: MB5407, brain heart infusion broth
Description: as §1

[12] = test system: Steptococcus viridans CL 2943; settings: brain heart infusion broth
Description: as §1

[13] = test system: Streptococcus pyogenes MB 2874; settings: MB2874, brain heart infusion broth
Description: as §1

Escherichia coli MB 2884 = settings: MB2884, brain heart infusion broth
Description: as §1

## CC[C@H]1OC(=O)[C@H](C)[C@@H](O[C@H]2C[C@@](C)(OC)[C@@H](O)[C@H](C)O2)[C@H](C)[C@@H](O[C@@H]2O[C@H](C)C[C@H](N(C)C)[C@H]2O)[C@](C)(O)C[C@@H](C)NC(=O)[C@H](C)[C@@H](O)[C@]1(C)O [(III), 8a-aza-8a-homoerythromycin A]
[1]
  MIC: 64 µg/mL (≈ 85.5 µM)
[2]
  MIC: ≤ 0.06 µg/mL
[3]
  MIC: 2 µg/mL (≈ 2.67 µM)
Escherichia coli MB 4926
  MIC: 4 µg/mL (≈ 5.34 µM)
[4]
  MIC: 128 µg/mL (≈ 171 µM)
[5]
  MIC: 2 µg/mL (≈ 2.67 µM)
[6]
  MIC: 64 µg/mL (≈ 85.5 µM)
[7]
  MIC: 1 µg/mL (≈ 1.34 µM)
[8]
  MIC: 0.25 µg/mL (≈ 0.334 µM)
[9]
  MIC: ≤ 0.06 µg/mL
[10]
  MIC: 0.12 µg/mL (≈ 0.16 µM)
[11]
  MIC: 16 µg/mL (≈ 21.4 µM)
[12]
  MIC: 4 µg/mL (≈ 5.34 µM)
[13]
  MIC: ≤ 0.06 µg/mL
Escherichia coli MB 2884
  MIC: 32 µg/mL (≈ 42.7 µM)
